From BigSolDB 2.1

N#CCNC(=O)c1cnccc1C(F)(F)F
solubility (mole fraction)
Conditions	283.15 K	288.15 K	293.15 K	298.15 K	303.15 K	308.15 K	313.15 K	318.15 K	323.15 K
in 1,4-dioxane	–	0.0145	0.0175	0.0208	0.0248	0.0295	0.0348	0.041	0.0482
in THF	0.0263	0.0302	0.0343	0.0387	0.044	0.0502	0.057	0.0645	0.072
in acetone	0.0359	0.041	0.0464	0.0527	0.0595	0.0677	0.0766	0.0871	0.099
in acetonitrile	0.0173	0.0206	0.0245	0.0289	0.034	0.0404	0.0475	0.0557	0.0657
in ethanol	0.00429	0.00546	0.00686	0.00856	0.0107	0.0133	0.0163	0.0202	0.0246
in ethyl acetate	0.00961	0.0114	0.0134	0.0158	0.0182	0.0213	0.0248	0.0288	0.033
in isobutanol	0.00152	0.00202	0.00264	0.00343	0.00441	0.00561	0.0071	0.00885	0.011
in isopropanol	0.00249	0.00328	0.00424	0.00543	0.00696	0.00893	0.0114	0.0144	0.0181
in methanol	0.00943	0.0115	0.0139	0.0168	0.0202	0.0241	0.0286	0.034	0.0402
in n-butanol	0.00298	0.00376	0.00475	0.00589	0.00731	0.00906	0.0111	0.0138	0.0169
in n-butyl acetate	0.00479	0.00572	0.00684	0.00806	0.00932	0.011	0.0128	0.015	0.0173
in n-propanol	0.00267	0.00344	0.00436	0.00552	0.00691	0.00874	0.0109	0.0138	0.0174
